Test results: PubChem BioAssay AID256 (DTP/NCI, 2004)
Values joined by “and” are separate entries in the source; they are usually repeats but may differ in a detail not shown here. Identical values can stand only once. Toxic doses and inconclusive results are not listed. Rule for the calls: active = survival T/C of 150% or more; inactive = T/C below 125% in these data.

Test system: CD2F1 mice, L1210 leukemia ip, survival T/C
Experiment: NCI In Vivo Anticancer Drug Screen. Data for tumor model L1210 Leukemia (intraperitoneal) in CD2F1 (CDF1) mice
Conditions: higher = longer survival
Procedure, shortened: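 Compound-dosed mice with transplantable tumor versus matched vehicle controls; endpoint ratio T/C reported.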

[1] = endpoint: mean survival time, dose: 100.0 mg/kg/injection, schedule: Q04DX003 (ip), vehicle: saline with Tween-80
[2] = endpoint: mean survival time, dose: 200.0 mg/kg/injection, schedule: Q04DX003 (ip), vehicle: saline with Tween-80
[3] = endpoint: mean survival time, dose: 400.0 mg/kg/injection, schedule: Q04DX003 (ip), vehicle: saline with Tween-80
[4] = endpoint: mean survival time, dose: 25.0 mg/kg/injection, schedule: Q04DX003 (ip), vehicle: saline with Tween-80
[5] = endpoint: mean survival time, dose: 100.0 mg/kg/injection, schedule: Q01DX009 (ip), vehicle: saline with Tween-80
[6] = endpoint: mean survival time, dose: 200.0 mg/kg/injection, schedule: Q01DX009 (ip), vehicle: saline with Tween-80
[7] = endpoint: mean survival time, dose: 50.0 mg/kg/injection, schedule: Q01DX009 (ip), vehicle: saline with Tween-80
[8] = endpoint: mean survival time, dose: 50.0 mg/kg/injection, schedule: Q04DX003 (ip), vehicle: saline with Tween-80
[9] = endpoint: mean survival time, dose: 100.0 mg/kg/injection, schedule: Q04DX003 (ip), vehicle: Klucel (hydroxypropylcellulose) (HPC)
[10] = endpoint: mean survival time, dose: 100.0 mg/kg/injection, schedule: Q01DX001 (ip), vehicle: Klucel (hydroxypropylcellulose) (HPC)
[11] = endpoint: mean survival time, dose: 200.0 mg/kg/injection, schedule: Q01DX001 (ip), vehicle: Klucel (hydroxypropylcellulose) (HPC)
[12] = endpoint: mean survival time, dose: 400.0 mg/kg/injection, schedule: Q01DX001 (ip), vehicle: Klucel (hydroxypropylcellulose) (HPC)
[13] = endpoint: mean survival time, dose: 200.0 mg/kg/injection, schedule: Q04DX003 (ip), vehicle: Klucel (hydroxypropylcellulose) (HPC)

Measured: T/C

O=C(O)/C=C/c1ccc(Cl)cc1Cl
inactive: [1] 95 % of control | [2] 95 % of control | [3] 86 % of control

OCCN1CCN(CCO)CC1.[Cl][Pt+2][Cl]
inactive: [4] 101 % of control | [1] 97 % of control | [2] 94 % of control

COc1cccc2c1C(=O)c1c(O)c3c(c(O)c1C2=O)C[C@@](O)(C(=O)CSc1ccccc1)C[C@@H]3OC1CC(N)C(O)C(C)O1 (some centres not stated)
inactive: endpoint: mean survival time, dose: 0.78 mg/kg/injection, schedule: Q01DX009 (ip), vehicle: water 107 % of control | endpoint: mean survival time, dose: 1.56 mg/kg/injection, schedule: Q01DX009 (ip), vehicle: water 106 % of control | endpoint: mean survival time, dose: 3.13 mg/kg/injection, schedule: Q01DX009 (ip), vehicle: water 101 % of control | endpoint: mean survival time, dose: 6.25 mg/kg/injection, schedule: Q01DX009 (ip), vehicle: water 106 % of control | endpoint: mean survival time, dose: 12.5 mg/kg/injection, schedule: Q01DX009 (ip), vehicle: water 101 % of control

CC(=O)Nc1cccc(Oc2ccc([N+](=O)[O-])cc2)c1
inactive: endpoint: mean survival time, dose: 100.0 mg/kg/injection, schedule: Q04DX002 (ip), vehicle: Klucel (hydroxypropylcellulose) (HPC) 98 % of control | endpoint: mean survival time, dose: 200.0 mg/kg/injection, schedule: Q04DX002 (ip), vehicle: Klucel (hydroxypropylcellulose) (HPC) 103 % of control | endpoint: mean survival time, dose: 400.0 mg/kg/injection, schedule: Q04DX002 (ip), vehicle: Klucel (hydroxypropylcellulose) (HPC) 98 % of control

CC(C)C(=NO)C(C)C
inactive: [5] 98 % of control | [1] 101 % of control | [6] 93 % of control | [2] 93 % of control | [3] 91 % of control

CNC(=O)OC(C)CC(O)(C(F)(F)F)C(F)(F)F (configuration not stated)
inactive: endpoint: mean survival time, dose: 25.0 mg/kg/injection, schedule: Q01DX009 (ip), vehicle: saline with Tween-80 97 % of control | [4] 96 % of control | [7] 101 % of control | [8] 98 % of control | [5] 98 % of control | [9] 96 % of control | [1] 98 % of control

CC(O)CNCCNc1ccc(NCCNCC(C)O)c2c1C(=O)c1c(O)ccc(O)c1C2=O (configuration not stated)
inactive: endpoint: mean survival time, dose: 0.25 mg/kg/injection, schedule: Q01DX005 (ip), vehicle: water 123 % of control | endpoint: mean survival time, dose: 0.5 mg/kg/injection, schedule: Q01DX005 (ip), vehicle: water 123 % of control
active: endpoint: mean survival time, dose: 8.0 mg/kg/injection, schedule: Q01DX005 (ip), vehicle: water 165 % of control

CC(C)=CCC(OC(=O)C=C(C)C)c1cc(O)c2c(O)ccc(O)c2c1O.[Pt] (configuration not stated)
inactive: endpoint: mean survival time, dose: 1.56 mg/kg/injection, schedule: Q04DX003 (ip), vehicle: distilled water + Tween-80 104 % of control | endpoint: mean survival time, dose: 3.12 mg/kg/injection, schedule: Q04DX003 (ip), vehicle: distilled water + Tween-80 104 % of control | endpoint: mean survival time, dose: 6.25 mg/kg/injection, schedule: Q04DX003 (ip), vehicle: distilled water + Tween-80 101 % of control | endpoint: mean survival time, dose: 12.5 mg/kg/injection, schedule: Q04DX003 (ip), vehicle: distilled water + Tween-80 101 % of control | endpoint: mean survival time, dose: 25.0 mg/kg/injection, schedule: Q04DX003 (ip), vehicle: distilled water + Tween-80 95 % of control | endpoint: mean survival time, dose: 50.0 mg/kg/injection, schedule: Q04DX003 (ip), vehicle: distilled water + Tween-80 89 % of control | endpoint: mean survival time, dose: 100.0 mg/kg/injection, schedule: Q04DX003 (ip), vehicle: distilled water + Tween-80 92 % of control

O=C(NCCCl)NC1CCSc2ccccc21 (configuration not stated)
inactive: [7] 95 % of control | [5] 91 % of control | [6] 91 % of control

CCCCCCCCCCCCCCN1CCCN(CCCCCCCCCCCCCC)CC1
inactive: [8] 93 % of control | endpoint: mean survival time, dose: 100.0 mg/kg/injection, schedule: Q01DX001 (ip), vehicle: saline with Tween-80 94 % of control | [5] 96 % of control and 101 % of control | endpoint: mean survival time, dose: 100.0 mg/kg/injection, schedule: Q04DX002 (ip), vehicle: saline with Tween-80 96 % of control | [1] 93 % of control and 101 % of control | endpoint: mean survival time, dose: 200.0 mg/kg/injection, schedule: Q01DX001 (ip), vehicle: saline with Tween-80 94 % of control | [6] 98 % of control and 104 % of control | endpoint: mean survival time, dose: 200.0 mg/kg/injection, schedule: Q04DX002 (ip), vehicle: saline with Tween-80 93 % of control and 97 % of control | [2] 98 % of control and 100 % of control | endpoint: mean survival time, dose: 400.0 mg/kg/injection, schedule: Q01DX001 (ip), vehicle: saline with Tween-80 101 % of control | endpoint: mean survival time, dose: 400.0 mg/kg/injection, schedule: Q01DX009 (ip), vehicle: saline with Tween-80 93 % of control and 95 % of control | endpoint: mean survival time, dose: 400.0 mg/kg/injection, schedule: Q04DX002 (ip), vehicle: saline with Tween-80 93 % of control and 96 % of control | [3] 98 % of control

N#CC(CC(=O)c1ccc(-c2ccccc2)cc1)c1ccccc1 (configuration not stated)
inactive: [1] 91 % of control | [2] 91 % of control | [3] 95 % of control

CNc1ccc(CSc2ccccc2)cc1
inactive: [10] 96 % of control | [11] 96 % of control | [12] 87 % of control

CCCC[N+](CCCC)(CCCC)CCCC.[O-][PH+](O)O[PH+]([O-])O.[O-][PH+](O)O[PH+]([O-])O.[O-][PH+](O)O[PH+]([O-])O.[O-][PH+](O)O[PH+]([O-])O.[Pt+2].[Pt+2]
inactive: endpoint: median survival time, dose: 10.0 mg/kg/injection, schedule: Q04DX003 (ip), vehicle: water 100 % of control | endpoint: median survival time, dose: 40.0 mg/kg/injection, schedule: Q04DX003 (ip), vehicle: water 105 % of control

O=C1CCC(=O)CC1
inactive: endpoint: mean survival time, dose: 100.0 mg/kg/injection, schedule: Q04DX002 (ip), vehicle: saline 111 % of control | endpoint: mean survival time, dose: 200.0 mg/kg/injection, schedule: Q04DX002 (ip), vehicle: saline 107 % of control | endpoint: mean survival time, dose: 400.0 mg/kg/injection, schedule: Q04DX002 (ip), vehicle: saline 107 % of control

COc1cc(C(=O)C(=O)c2cc(OC)c(OC)c(OC)c2)cc(OC)c1OC
inactive: endpoint: mean survival time, dose: 100.0 mg/kg/injection, schedule: Q01DX009 (ip), vehicle: Klucel (hydroxypropylcellulose) (HPC) 101 % of control | endpoint: mean survival time, dose: 200.0 mg/kg/injection, schedule: Q01DX009 (ip), vehicle: Klucel (hydroxypropylcellulose) (HPC) 106 % of control | endpoint: mean survival time, dose: 400.0 mg/kg/injection, schedule: Q01DX009 (ip), vehicle: Klucel (hydroxypropylcellulose) (HPC) 113 % of control

C/C(=N\NC(N)=O)C(F)(F)F
inactive: [7] 101 % of control | [5] 102 % of control | [1] 97 % of control | [6] 102 % of control | [2] 108 % of control

O=C(O)c1cscc1-c1ccccc1
inactive: [1] 104 % of control | [2] 104 % of control | [3] 102 % of control

COc1cccc(/C=N/OCCNC(=O)c2ccc([N+](=O)[O-])cc2)c1
inactive: [1] 97 % of control | [2] 93 % of control | [3] 101 % of control

CCOC(=O)C(=O)O
inactive: endpoint: mean survival time, dose: 200.0 mg/kg/injection, schedule: Q01DX009 (ip), vehicle: saline 104 % of control

Cc1c[nH]c(=O)n(CC(=O)C2(O)CCC3C4CCC5=CC(=O)CCC5(C)C4CCC32C)c1=O (configuration not stated)
inactive: endpoint: mean survival time, dose: 12.5 mg/kg/injection, schedule: Q04DX003 (ip), vehicle: Klucel (hydroxypropylcellulose) (HPC) 103 % of control | endpoint: mean survival time, dose: 25.0 mg/kg/injection, schedule: Q04DX003 (ip), vehicle: Klucel (hydroxypropylcellulose) (HPC) 102 % of control | endpoint: mean survival time, dose: 50.0 mg/kg/injection, schedule: Q04DX003 (ip), vehicle: Klucel (hydroxypropylcellulose) (HPC) 102 % of control | [9] 97 % of control | [13] 100 % of control

CCCCCC(Br)C(Br)CC(Br)C(Br)CC(Br)C(Br)CCCCC(=O)O (configuration not stated)
inactive: [10] 101 % of control | [11] 96 % of control | [12] 107 % of control

Nc1nc2c(ncn2C2CC3[O][Sn]([c]4ccccc4)([c]4ccccc4)[O]CC3O2)c(=O)[nH]1 (configuration not stated)
inactive: endpoint: mean survival time, dose: 6.25 mg/kg/injection, schedule: Q01DX005 (ip), vehicle: distilled water + Tween-80 104 % of control | endpoint: mean survival time, dose: 12.5 mg/kg/injection, schedule: Q01DX005 (ip), vehicle: distilled water + Tween-80 93 % of control | endpoint: mean survival time, dose: 25.0 mg/kg/injection, schedule: Q01DX005 (ip), vehicle: distilled water + Tween-80 93 % of control | endpoint: mean survival time, dose: 50.0 mg/kg/injection, schedule: Q01DX005 (ip), vehicle: distilled water + Tween-80 90 % of control | endpoint: mean survival time, dose: 100.0 mg/kg/injection, schedule: Q01DX005 (ip), vehicle: distilled water + Tween-80 106 % of control

C[C@@H](C[P+](c1ccccc1)(c1ccccc1)c1ccccc1)[C@](OC(=O)c1ccccc1)(C(=O)c1ccccc1)c1ccccc1
inactive: endpoint: mean survival time, dose: 6.25 mg/kg/injection, schedule: Q01DX001 (ip), vehicle: saline with Tween-80 100 % of control | endpoint: mean survival time, dose: 12.5 mg/kg/injection, schedule: Q01DX001 (ip), vehicle: saline with Tween-80 105 % of control | endpoint: mean survival time, dose: 25.0 mg/kg/injection, schedule: Q01DX001 (ip), vehicle: saline with Tween-80 109 % of control

CCOC(=O)N(C)CC1C(=O)Nc2ccccc21 (configuration not stated)
inactive: [9] 105 % of control | [13] 110 % of control | endpoint: mean survival time, dose: 400.0 mg/kg/injection, schedule: Q04DX003 (ip), vehicle: Klucel (hydroxypropylcellulose) (HPC) 102 % of control
